Test results reported in patent US20240082282A1 (priority 2020, published 2024).
In brackets after ≈: the same amount, converted by molar mass. Read-outs that look alike come from different tables or passages of the source.

How the values were obtained:
[1] = tested on: Clostridium perfringens KLE 2326; assay: microbe, parasite or virus in culture; format: cell-based
[2] = tested on: Staphylococcus epidermidis KLE 2378; format: cell-based; conditions: Staphylococcus epidermidis KLE 2378, anaerobic, stool isolate
[3] = tested on: Shigella sonnei ATCC 25931; format: cell-based
Escherichia coli MG1655 = format: cell-based
[4] = tested on: Pseudomonas aeruginosa PAO1; format: cell-based
[5] = tested on: Salmonella typhimurium LT2 ATCC 19585; format: cell-based
[6] = tested on: Streptococcus parasanguinis KLE 2375; format: cell-based; conditions: Streptococcus parasanguinis KLE 2375, anaerobic, stool isolate
[7] = tested on: Bifidobacterium longum ATCC BAA-999; format: cell-based
[8] = tested on: Bacteroides cellulosilyticus KLE 2342; format: cell-based; conditions: Bacteroides cellulosilyticus KLE 2342, anaerobic, stool isolate
[9] = tested on: Streptococcus sanguinis KLE 2374; format: cell-based; conditions: Streptococcus sanguinis KLE 2374, anaerobic, stool isolate
[10] = tested on: Lactobacillus reuteri ATCC 23272; format: cell-based
[11] = tested on: Bacteroides fragilis ATCC 25285; format: cell-based
[12] = tested on: Blautia producta ATCC 27340; format: cell-based; conditions: Blautia producta ATCC 27340, anaerobic
[13] = tested on: Bacteroides ovatus KLE 2306; format: cell-based; conditions: Bacteroides ovatus KLE 2306, anaerobic, stool isolate
[14] = tested on: Bacteroides vulgatus KLE 2381; format: cell-based; conditions: Bacteroides vulgatus KLE 2381, anaerobic, stool isolate
[15] = tested on: Enterobacter cloacae ATCC 13047; format: cell-based; conditions: Enterobacter cloacae ATCC 13047, anaerobic
[16] = tested on: Bacteroides xylanisolvens KLE 2305; format: cell-based; conditions: Bacteroides xylanisolvens KLE 2305, anaerobic, stool isolate
[17] = tested on: Leptospira biflexa ATCC 23582; conditions: for MIC: Leptospira biflexa
[18] = tested on: Borrelia burgdorferi BbP1286; assay: microbe, parasite or virus in culture; conditions: Borreliella burgdorferi, BBP1286, read-out: Minimum inhibitory concentration (MIC)
[19] = tested on: Borreliella burgdorferi B31
[20] = tested on: Borrelia turcica DSM 16138; conditions: for MIC: Borrelia turcica
[21] = tested on: Brevinema andersonii ATCC 43811
B. burgdorferi N40 = assay: Mouse infection model (IP injection, oral gavage); conditions: for Culture positive (%): C3H, 5 days, whole ear culture; for B. burgdorferi culture (% positive) / Mean # of B. burgdorferi/10 mg of skin tissue (qPCR): twice a day for 5 days; for B. burgdorferi culture from mice: oral gavage twice per day
murine gut microbiome = assay: Impact on the murine fecal microbiome (16S rRNA sequencing)
Protocol: Stool samples were collected and V4 region of the 16s rRNA gene was amplified using primers and sequenced (IonTorrent).
Fecal pellets were collected 3 days before and 3 days after antibiotic treatment and were stored at −80° C. in PBS. Sequencing of a stool pellet from each mouse from before and after treatment was performed by MR DNA (www.mrdnalab.com, Shallowater, TX, USA) on an Ion Torrent PGM. Using PCR primers, the V4 variable region of the 16SrRNA gene was amplified in a single-step 30 cycle PCR with the HotStarTaq Plus Master Mix Kit (Qiagen, USA). The following conditions were used: 94° C. for 3 minutes and 30 cycles of 94° C. for 30 seconds, 53° C. for 40 seconds and 72° C. for 1 minute, then a final elongation step for 5 minutes at 72° C. […] Barcodes and primers and then sequences<150 bp were removed. Further, sequences with homopolymer runs exceeding 6 bp and sequences with ambiguous calls were removed. The sequences were then denoised, OTUs were generated, and chimeras were removed; OTUs were clustered at 3% divergence. Taxonomic classification was performed using BLASTn against a database derived from RDPII available at www.rdp.cme.msu.edu) and NCBI (www.ncbi.nlm.nih.gov). The change in relative abundance of the most abundant genera from before to after treatment of each individual mouse was reported. Further, raw sequences were processed in Qiita (Gonzalez, A., et al. (2018). Nat Methods 15, 796-798; the contents of which are herein incorporated by reference in its entirety) and were demultiplexed, trimmed to 100 bp, and closed reference OTU picking was performed against the Greengenes database at 97% similarity (McDonald, D. et al. (2012). ISME J 6, 610-618; the contents of which are herein incorporated by reference in its entirety). The alpha diversity based on the Simpson index was calculated in Qiita. The change in the Simpson index was calculated for the fecal microbiome of each mouse from before to after treatment. Statistical significance was calculated using a one-way ANOVA with Tukey's multiple comparisons test (p<0.05).

[22] = oral gavage, daily dose 100 mg/kg/day

Compound: C[C@H]1c2cccc(O)c2C(=O)C2=C(O)[C@]3(O)C(=O)C(C(N)=O)=C(O)[C@@H](N(C)C)[C@@H]3[C@@H](O)[C@@H]21 [Doxycycline]
- MIC ([1]; Clostridium perfringens, KLE2326, read-out: Minimum inhibitory concentration (MIC)): 0.25 µg/mL (≈ 0.563 µM)
- MIC ([2]; KLE2378, read-out: Minimum inhibitory concentration (MIC)): 0.5 µg/mL (≈ 1.13 µM)
- MIC ([3]; ATCC25931, Shigella sonnei ATCC 25931, anaerobic, read-out: Minimum inhibitory concentration (MIC)): 4 µg/mL (≈ 9 µM)
- MIC (Escherichia coli MG1655; read-out: Minimum inhibitory concentration (MIC)): 2 µg/mL (≈ 4.5 µM)
- MIC ([4]; Pseudomonas aeruginosa PAO1, read-out: Minimum inhibitory concentration (MIC)): 32 µg/mL (≈ 72 µM)
- MIC ([5]; Salmonella enterica, Salmonella typhimurium LT2 ATCC 19585, anaerobic, read-out: Minimum inhibitory concentration (MIC)): 8 µg/mL (≈ 18 µM)
- MIC ([6]; KLE2375, read-out: Minimum inhibitory concentration (MIC)): 4 µg/mL (≈ 9 µM)
- MIC ([7]; ATCCBAA999, Bifidobacterium longum ATCC BAA-999, anaerobic, read-out: Minimum inhibitory concentration (MIC)): 0.25 µg/mL (≈ 0.563 µM)
- MIC ([8]; KLE2342, read-out: Minimum inhibitory concentration (MIC)): 2 µg/mL (≈ 4.5 µM)
- MIC ([9]; KLE2374, read-out: Minimum inhibitory concentration (MIC)): 0.25 µg/mL (≈ 0.563 µM)
- MIC ([10]; Limosilactobacillus reuteri, ATCC23272, Lactobacillus reuteri ATCC 23272, anaerobic, read-out: Minimum inhibitory concentration (MIC)): 8 µg/mL (≈ 18 µM)
- MIC ([11]; ATCC25285, Bacteroides fragilis ATCC 25285, anaerobic, read-out: Minimum inhibitory concentration (MIC)): 0.5 µg/mL (≈ 1.13 µM)
- MIC ([12]; ATCC27340, read-out: Minimum inhibitory concentration (MIC)): 2 µg/mL (≈ 4.5 µM)
- MIC ([13]; KLE2306, read-out: Minimum inhibitory concentration (MIC)): 0.01 µg/mL (≈ 0.0225 µM)
- MIC ([14]; Phocaeicola vulgatus, KLE2381, read-out: Minimum inhibitory concentration (MIC)): 1 µg/mL (≈ 2.25 µM)
- MIC ([15]; ATCC13047, read-out: Minimum inhibitory concentration (MIC)): 8 µg/mL (≈ 18 µM)
- MIC ([16]; KLE2305, read-out: Minimum inhibitory concentration (MIC)): 0.5 µg/mL (≈ 1.13 µM)
- MIC ([17]; ATCC23582, read-out: Minimum inhibitory concentration (MIC)): 2 µg/mL (≈ 4.5 µM)
- MIC [18]: 0.25 µg/mL (≈ 0.563 µM)
- MIC ([19]; Borreliella burgdorferi, B31, read-out: Minimum inhibitory concentration (MIC)): 0.25 µg/mL (≈ 0.563 µM)
- MIC (Borrelia afzelii; Borreliella afzelii, read-out: Minimum inhibitory concentration (MIC)): 0.12 µg/mL (≈ 0.27 µM)
- MIC (Borrelia garinii; Borreliella garinii, read-out: Minimum inhibitory concentration (MIC)): 0.12 µg/mL (≈ 0.27 µM)
- MIC ([20]; DSM16138, read-out: Minimum inhibitory concentration (MIC)): 0.25 µg/mL (≈ 0.563 µM)
- MIC ([21]; Brevinema andersonii, ATCC43811, read-out: Minimum inhibitory concentration (MIC)): 0.12 µg/mL (≈ 0.27 µM)
- Culture positive (%) (B. burgdorferi N40; [22]): 0%

Compound: Hygromycin A
- Minimum inhibitory concentration (MIC) ([1]; Clostridium perfringens KLE 2326, anaerobic, stool isolate): 8 µg/mL
- Minimum inhibitory concentration (MIC) [2]: 32 µg/mL
- MIC ([3]; Shigella sonnei): 64 µg
- Minimum inhibitory concentration (MIC) ([3]; Shigella sonnei ATCC 25931, anaerobic): 64 µg/mL
- MIC (Escherichia coli MG1655): 128 µg
- Minimum inhibitory concentration (MIC) (Escherichia coli MG1655): 128 µg/mL
- MIC ([4]; Pseudomonas aeruginosa): >128 µg
- Minimum inhibitory concentration (MIC) ([4]; Pseudomonas aeruginosa PAO1): >128 µg/mL
- MIC ([5]; Salmonella typhimurium): >128 µg
- Minimum inhibitory concentration (MIC) ([5]; Salmonella typhimurium LT2 ATCC 19585, anaerobic): >128 µg/mL
- Minimum inhibitory concentration (MIC) [6]: 4 µg/mL
- MIC ([7]; Bifidobacterium longum): 8 µg
- Minimum inhibitory concentration (MIC) ([7]; Bifidobacterium longum ATCC BAA-999, anaerobic): 8 µg/mL
- Minimum inhibitory concentration (MIC) [8]: 8 µg/mL
- Minimum inhibitory concentration (MIC) [9]: 16 µg/mL
- MIC ([10]; Lactobacillus reuteri): 32 µg
- Minimum inhibitory concentration (MIC) ([10]; Lactobacillus reuteri ATCC 23272, anaerobic): 32 µg/mL
- MIC ([11]; Bacteroides fragilis): >128 µg
- Minimum inhibitory concentration (MIC) ([11]; Bacteroides fragilis ATCC 25285, anaerobic): 32 µg/mL
- Minimum inhibitory concentration (MIC) [12]: 64 µg/mL
- Minimum inhibitory concentration (MIC) [13]: 64 µg/mL
- Minimum inhibitory concentration (MIC) [14]: 64 µg/mL
- Minimum inhibitory concentration (MIC) [15]: >128 µg/mL
- Minimum inhibitory concentration (MIC) [16]: >128 µg/mL
- Increases in Enterococcaceae or Enterobacteriaceae (murine gut microbiome; HygA 50 mg/kg oral, 5 days): did not lead to increases
- Mice that maintained Bacteroidaceae levels (murine gut microbiome; HygA 50 mg/kg oral, 5 days): 1/5
- Mice with decreased Bacteroidaceae (murine gut microbiome; HygA 50 mg/kg oral, 5 days): 3/5
- Mice with increased Bacteroidaceae (murine gut microbiome; HygA 50 mg/kg oral, 5 days): 1/5
- Overall fluctuation of Bacteroidaceae (murine gut microbiome; HygA 50 mg/kg oral, 5 days, not significantly different from untreated): −8.5 % relative abundance
- Change in symbiotic Lactobacillus and Lactococcus (murine gut microbiome; after treatment): prominent increase
- Changes in the composition of the microbiota (murine gut microbiome; clinically relevant doses, 16S rDNA sequencing, FIG. 8, 9A, 9B): milder
- MIC [17]: 4 µg
- Minimum inhibitory concentration (MIC) ([17]; Leptospira biflexa ATCC 23582): 4 µg/mL
- MIC [19]: 0.25 µg/mL
- Minimum inhibitory concentration (MIC) ([19]; Borreliella burgdorferi B31, microaerophilic): 0.25 µg/mL
- MIC (Borrelia afzelii; B. afzelii): 0.25 µg/mL
- MIC (Borrelia afzelii; Borrelia afzelii): 0.25 µg
- Minimum inhibitory concentration (MIC) (Borrelia afzelii; Borreliella afzelii, microaerophilic): 0.25 µg/mL
- MIC (Borrelia garinii; B. garinii): 0.25 µg/mL
- MIC (Borrelia garinii; Borrelia garinii): 0.25 µg
- Minimum inhibitory concentration (MIC) (Borrelia garinii; Borreliella garinii, microaerophilic): 0.25 µg/mL
- MIC [20]: 0.5 µg
- Minimum inhibitory concentration (MIC) ([20]; Borrelia turcica DSM 16138, microaerophilic): 0.5 µg/mL
- Minimum inhibitory concentration (MIC) ([21]; Brevinema andersonii ATCC 43811, microaerophilic): 2 µg/mL
- B. burgdorferi culture (% positive) (B. burgdorferi N40; 25 mg/kg, oral gavage): 50%
- Mean # of B. burgdorferi/10 mg of skin tissue (qPCR) (B. burgdorferi N40; 25 mg/kg, oral gavage): <1 B. burgdorferi/10 mg of skin t
- B. burgdorferi culture (% positive) (B. burgdorferi N40; 50 mg/kg, oral gavage): 0%
- Mean # of B. burgdorferi/10 mg of skin tissue (qPCR) (B. burgdorferi N40; 50 mg/kg, oral gavage): <1 B. burgdorferi/10 mg of skin t
- B. burgdorferi culture (% positive) (B. burgdorferi N40; 70 mg/kg, oral gavage): 0%
- Mean # of B. burgdorferi/10 mg of skin tissue (qPCR) (B. burgdorferi N40; 70 mg/kg, oral gavage): <1 B. burgdorferi/10 mg of skin t
- B. burgdorferi culture (% positive) (B. burgdorferi N40; 75 mg/kg, IP injection): 0%
- Mean # of B. burgdorferi/10 mg of skin tissue (qPCR) (B. burgdorferi N40; 75 mg/kg, IP injection): <1 B. burgdorferi/10 mg of skin t
- B. burgdorferi culture (% positive) (B. burgdorferi N40; 250 mg/kg, oral gavage): 0%
- Mean # of B. burgdorferi/10 mg of skin tissue (qPCR) (B. burgdorferi N40; 250 mg/kg, oral gavage): <1 B. burgdorferi/10 mg of skin t
- Culture positive (%) (B. burgdorferi N40; intraperitoneal injection, daily dose 100 mg/kg/day): 0%
- Culture positive (%) (B. burgdorferi N40; oral gavage, daily dose 50 mg/kg/day): 50%
- Culture positive (%) (B. burgdorferi N40; [22]): 0%
- Culture positive (%) (B. burgdorferi N40; oral gavage, daily dose 140 mg/kg/day): 0%
- Culture positive (%) (B. burgdorferi N40; oral gavage, daily dose 500 mg/kg/day): 0%
- Clearance of infection (B. burgdorferi N40; IP injection twice a day, after 5 days of treatment, similarly to ceftriaxone control): cleared the infection
- B. burgdorferi culture from mice (B. burgdorferi N40; 10 and 25 mg/kg): B. burgdorferi were cultured from mice
- B. burgdorferi culture from mice (B. burgdorferi N40; doses higher than 25 mg/kg): not at any of the higher doses
- PCR from ear, joint and heart tissue (B. burgdorferi N40; oral gavage, doses above 50 mg/kg): negative
